Tested on: respiratory syncytial virus Long strain
Test: cell protection assay (RSV-induced cytopathic effects, MTT staining)
Type: cell-based
Experimental: For cell protection assays, HEp-2 (ATCC CCL 23) cells were seeded in 96 well microtiter plates at 1.5×10^4 cells/100 μL/well in DMEM (Dulbecco's Modified Eagle's Medium) supplemented with penicillin, streptomycin, glutamine, and 10% fetal bovine serum. After overnight incubation at 37° C., the culture medium was removed and cells were infected with respiratory syncytial virus Long strain at 5000 plaque forming units (PFU)/mL in a 100 μL volume of medium containing 2% fetal bovine serum. The compounds, 100 μL at appropriate dilution, were added to the cells one hour post infection. After incubation for 4 days at 37° C., the plates were stained with MTT solution (3-[4,5-dimethlythiazol-2-yl]-2,5-diphenyltetrazolium bromide) and incubated for 4 hours at 37° C. The media was aspirated from the cells and 100 μL/well of acidified isopropanol (per liter: 900 mL isopropanol, 100 mL Triton X100, and 4 mL conc. HCl) was added. Plates were incubated for 15 minutes at room temperature with shaking, and an optical density (OD 540) reading at 540 nanometer (nm) was obtained. The optical density reading is proportional to the number of viable cells. The increase in the number of viable cells reflects the protective, antiviral activity of the compound. […]

Compound: NC(=O)c1ncn([C@@H]2O[C@H](CO)[C@@H](O)[C@H]2O)n1 [Ribavirin]
- cell protection (at 2.5 μg/mL (corresponding to 10.2 μM), HEp-2 cells, RSV Long strain): 100%
- EC50 (human respiratory syncytial virus, HEp-2 cells infected with RSV Long strain, compound added one hour post infection, 4 days, MTT, read-out: EC50 (concentration that produces 50% cell protection)): 3000 nM
